Data on 5 molecules can be found in article PMC10111420, “Optimization of Host Cell-Compatible, Antimicrobial Peptides Effective against Biofilms and Clinical Isolates of Drug-Resistant Bacteria” (ACS Infectious Diseases, 2023).

For one data set, the system named is human RBCs. The format is cell-based. On the procedure:
Human O+ erythrocytes were obtained from Interstate Blood Bank, Inc. Red blood cells were subjected to four or more cycles of centrifugation at 1000g with resuspension in fresh PBS. Following the final wash step, the supernatant was clear and colorless. RBC concentration was determined using a standard hemocytometer.
Peptide was serially diluted in PBS starting at a concentration of 100 μM. The final volume of peptide in each well was 50 μL. To each well, 50 μL of RBCs in PBS at 2 × 10^8 cells/mL was added. As a positive lysis control, 1% Triton was used. The mixtures were incubated at 37 °C for 1 h, after which they were centrifuged at 1000g for 5 min. After centrifugation, 10 μL of supernatant was transferred to 90 μL of DI H2O in a fresh 96-well plate. The absorbance of released hemoglobin at 410 nm was recorded, and the fractional hemolysis was calculated based on the 100 and 0% lysis controls. At least three independent experiments were performed. Results shown are averages.

Another data set can be described thus: in vitro. The format is cell-based, human. Conditions: human. As for the experimental part:
(§1) The day before cytotoxicity experiments, the 10,000 cells/well were plated in a 96-well tissue-culture plate. […] To perform the cytotoxicity assay, media was removed from the wells and replaced with peptide solutions. […] The plate was read for SYTOX fluorescence every 5 min for an hour with an excitation wavelength of 504 nm and an emission wavelength of 523 nm. Percent cytotoxicity was calculated at 60 min using the 100 and 0% lysis controls. At least three independent experiments were averaged.

The test system of data set [1] is K. pneumoniae subsp. pneumoniae (ATCC 13883). As for the experimental part: (§2) All peptide variants were synthesized and purified as described previously.[5],[7] They were tested in broth dilution in the presence and absence of 1 × 10^9 human RBCs per mL, 20% of the concentration in human blood, against Escherichia coli, K. pneumoniae, and Staphylococcus aureus. […] The toxicity of the variants was tested by measuring hemolysis as well as cytotoxicity against human WI-38 fibroblast cells.
(§3) Subcultures, prepared by inoculating 25 mL of fresh tryptic soy broth (TSB) with 200 μL of an overnight culture, were grown to log phase (OD600 = 0.3–0.6), after which cell counts were determined by measuring the OD600 (1.0 = 5 × 10^8 CFU/mL for E. coli, 4 × 10^8 CFU/mL for K. pneumoniae, 4 × 10^8 CFU/mL for P. aeruginosa, 1.5 × 10^8 CFU/mL for S. aureus). Bacterial cells were diluted to appropriate concentrations in TSB. We used the following clinical bacterial isolates of Klebsiella pneumoniae in this study: Strains KP6, KP46, NDM-1, KP396, and KP398 have been previously described.[43] ST58 strains C2, C3, and I2 are also described.[41] […] MRSA, […] S. aureus strain, is SAP400, a USA400 strain of community-acquired MRSA. […] The second independent set of K. pneumoniae isolates are previously described.[20],[21]
(§4) The antibiotics were serially diluted by a factor of 2:3 horizontally across 96-well plates from Corning, 25 μL per well. One column was reserved for controls. For the assays performed in the presence of RBC, type O+ human RBCs at 0 or 2.5 × 10^9 cells/mL were added in 50 μL aliquots to all wells. Following a 30-min incubation, 50 μL of TSB, inoculated with 5 × 10^5 CFU/mL, was added to all wells, and plates were incubated overnight at 37 °C. Following overnight incubation at 37 °C, the OD600 was measured (values of less than 0.1 were considered sterilized). To assess bacterial growth in the assays with RBC, the OD600 was measured after a second-day inoculation with 10 μL of solution from the original plate added to 100 μL of sterile TSB followed by overnight incubation.
(§5) Experiments were repeated four to eight times independently, with pairs of replicate measurements on each 96-well plate. After overnight growth, optical densities were measured at 660 nm and the sterilized wells were identified by having O.D. < 0.08. Nonsterilized wells were nearly opaque with OD > 0.6. For each measurement, we recorded the largest dilution that sterilized the bacteria. Statistics are done on dilution numbers, rather than calculated concentrations, because only the former have normal distributions.

The test system of data set [2] is WI-38 human fibroblast cells. Nature of the data set: in vitro. It is filed as cell-based. As for the experimental part:
as §1

For data set [3], the system named is P. aeruginosa PAO1 (EYFP) pellicle biofilms. Nature of the data set: Pellicle biofilm assay, viable cell enumeration. The format is cell-based, Pseudomonas aeruginosa. Conditions: 2 μM, 48 h pellicle biofilm, 24 h challenge, dispersing and counting viable cells.
Method: Here, we directly compare the antibiofilm activity of D-CONGA and D-CONGA-Q7 using a mature pellicle biofilm of P. aeruginosa.[22] […] To determine the susceptibility of pellicle biofilms to D-CONGA and D-CONGA-Q7, we cultured 2-day-old biofilms as described in the Methods section. The coverslip-adhered biofilms were exposed to challenge solution for 24 h prior to staining with SYTOX red and imaging with CLSM for EYFP, which indicates live cells, and for SYTOX Red which stains dead cells and extracellular DNA. […] The % cell survival was quantitated in two ways: (i) COMSTAT was used to compare biofilm biomass in CLSM images by estimating the biofilm biovolume, which is calculated as the overall volume/substratum area (μm^3/μm^2).[24],[25] […] (ii) The biofilms were dispersed mechanically for subsequent enumeration of viable cells such that % survival is expressed as the ratio (CFUuntreated biofilm/CFUtreated biofilm).
The susceptibility of biofilm-embedded P. aeruginosa cells to the antimicrobial peptides was studied as reported previously[23] using a P. aeruginosa PAO1 strain expressing enhanced yellow fluorescent protein (EYFP).[22] The EYFP-expressing P. aeruginosa strain was routinely grown in Pseudomonas Isolation (PI) media (20 g/L peptone, 0.3 g/L, MgCl2·6H2O, 10 g/L, K2SO4, 25 mg/L irgasan, and 20 mL/L glycerol, pH 7.0). […] Iron supplementation was carried out by addition of a small volume of filter-sterilized 10 mM (NH4)2Fe(SO4)2 (pH ∼ 2.0) solution.
In brief: Starter cultures (5 mL PI media supplemented with 10 μM Fe) were grown (14 h) from a single-colony shaking (220 rpm) at 37 °C. To grow the pellicle biofilms, starter cultures were diluted to OD600 = 0.001 in 4 mL of PI media supplemented with 20 μM Fe, placed in 35 × 10 mm Petri dishes, and incubated statically at 30 °C for 48 h. The pellicles were harvested using circular (1.5 cm diameter) glass coverslips by gently allowing the surface of a coverslip to contact the biofilm at the air–liquid interface. […]
A further data set relates to P. aeruginosa. Conditions: cited from earlier work.
The next data set relates to S. aureus (ATCC 25923). As for the experimental part: as §2, §3, §4, §5

≈ marks a conversion by molar mass, not a printed value. Where “and” joins values, the source holds several entries; their conditions need not be identical. Equal values may be shown once. Where a SMILES comes first, the peptide text is derived from it. [ ]: non-standard residue; d: D form. dAgb = N=C(N)NCC[C@@H](N)C(=O)O; βAla = NCCC(=O)O

As a reminder, the EC50 is the concentration giving half of the maximal effect. With `CC(C)C[C@@H](NC(=O)[C@@H](CCCNC(=N)N)NC(=O)[C@H](CCCNC(=N)N)NC(=O)[C@@H](C)NC(=O)[C@@H](Cc1c[nH]c2ccccc12)NC(=O)[C@@H](CCCNC(=N)N)NC(=O)[C@H](N)CCCNC(=N)N)C(=O)N[C@H](C)C(=O)N[C@H](Cc1ccccc1)C(=O)N[C@@H](C)C(=O)N[C@H](Cc1ccccc1)C(=O)N[C@H](CCCNC(=N)N)C(=O)N[C@H](CCCNC(=N)N)C(N)=O` [D-CONGA-L-R5,A10] (H-[dR][dR][dW][dA]R[dR][dL][dA][dF]A[dF][dR][dR]-NH2; N-terminus and C-terminus assumed), in the data set with human RBCs, the “Hemolysis at 100 μM (fractional hemolysis)” value is reported as 0.04. For the same molecule, in “in vitro”, the EC50 at 60 min was above 1000 µM.
For the molecule `CC(C)C[C@@H](NC(=O)[C@@H](CCCNC(=N)N)NC(=O)[C@@H](CCCNC(=N)N)NC(=O)[C@@H](C)NC(=O)[C@@H](Cc1c[nH]c2ccccc12)NC(=O)[C@@H](CCCNC(=N)N)NC(=O)[C@H](N)CCCNC(=N)N)C(=O)N[C@H](C)C(=O)N[C@H](Cc1ccccc1)C(=O)N[C@H](C)C(=O)N[C@H](Cc1ccccc1)C(=O)N[C@H](CCCNC(=N)N)C(N)=O` [D-CONGA-ΔR13] (H-[dR][dR][dW][dA][dR][dR][dL][dA][dF][dA][dF][dR]-NH2; N-terminus and C-terminus assumed), the “MIC in Broth Dilution, K. Pneumoniae” value in data set [1] was 2.1 µM (≈ 3.37 µg/mL). Also, the “Hemolysis at 100 μM (fractional hemolysis)” value with human RBCs was determined as 0.03. In data set [2], this molecule registered an EC50 of 300 µM.
Regarding `CC(C)C[C@@H](NC(=O)CCNC(=O)[C@@H](CCCNC(=N)N)NC(=O)[C@@H](CCCNC(=N)N)NC(=O)[C@@H](C)NC(=O)[C@@H](Cc1c[nH]c2ccccc12)NC(=O)[C@@H](CCCNC(=N)N)NC(=O)[C@H](N)CCCNC(=N)N)C(=O)N[C@H](C)C(=O)N[C@H](Cc1ccccc1)C(=O)N[C@H](C)C(=O)N[C@H](Cc1ccccc1)C(=O)N[C@H](CCCNC(=N)N)C(=O)N[C@H](CCCNC(=N)N)C(N)=O` [D-CONGA-βA7] (H-[dR][dR][dW][dA][dR][dR][βAla][dL][dA][dF][dA][dF][dR][dR]-NH2; N-terminus and C-terminus assumed), the “Hemolysis at 100 μM (fractional hemolysis)” value with human RBCs is 0.02. The molecule further yielded an EC50 at 60 min in the data set “in vitro” above 1000 µM.
In the case of colistin, the “Reduction of biofilm CFU” value in data set [3] was “no detectable activity”. Also, the “reported MIC” value in the data set with P. aeruginosa was 1 μg/mL and 0.79 μM.
As for `CC(C)C[C@@H](NC(=O)[C@@H](CCNC(=N)N)NC(=O)[C@@H](CCNC(=N)N)NC(=O)[C@@H](C)NC(=O)[C@@H](Cc1c[nH]c2ccccc12)NC(=O)[C@@H](CCCNC(=N)N)NC(=O)[C@H](N)CCCNC(=N)N)C(=O)N[C@H](C)C(=O)N[C@H](Cc1ccccc1)C(=O)N[C@H](C)C(=O)N[C@H](Cc1ccccc1)C(=O)N[C@H](CCCNC(=N)N)C(=O)N[C@H](CCCNC(=N)N)C(N)=O` [D-CONGA- NorR] (H-[dR][dR][dW][dA][dAgb][dAgb][dL][dA][dF][dA][dF][dR][dR]-NH2; N-terminus and C-terminus assumed), in the data set with S. aureus (ATCC 25923), the “MIC in Broth Dilution, S. Aureus” value worked out at 17 µM (≈ 29.5 µg/mL).
